Source: patent US3951987A, “Tetrahydropyridine derivatives” (priority 1975, dated 1976)

How the values were obtained:
rats = test: Standard "open field" test (50 percent decrease in the number of diameter crossings vs untreated controls); type: in vivo; conditions: Rattus norvegicus, po, read-out: ED50 (dosage which caused a 50 percent decrease in the number of diameter crossings)
Text: The dosage which caused a 50 percent decrease (in comparison to the untreated controls) in the number of diameter crossings is expressed as the ED50.

Toxicity (mouse), p.o. = conditions: in vivo, po

SMILES | ED50 (rats) [mg/kg] | LD50 (Toxicity (mouse), p.o.) [mg/kg]
Nc1ccc(OCCN2CC=C(c3ccc(F)cc3)CC2)cc1 [p-[2-[4-(p-fluoro-phenyl)-3,6-dihydro-1(2H)-pyridyl]-ethoxy]-aniline] | 0.6 | 250 to 500
CC(=O)Nc1ccc(OCCN2CC=C(c3ccc(F)cc3)CC2)cc1 [4'-{2-[4-(p-fluorophenyl)-3,6-dihydro-1(2H)-pyridyl]ethoxy}acetanilide] | 0.6 | 250 to 500
CCC(=O)Nc1ccc(OCCN2CC=C(c3ccc(F)cc3)CC2)cc1 [4'-[2-[4-(p-fluoro-phenyl)-3,6-dihydro-1(2H)-pyridyl)-ethoxy]-propionanilide] | 0.6 | 150 to 300
